In US9957230B2, “Synergistic compositions” (Cadila Healthcare Limited, priority 2013, dated 2018):
Where “and” joins values, the source holds several entries; their conditions need not be identical. Equal values may be shown once. Where a name gives a salt, the structure may show the parent alone.

Experiments:
Type in all cases: in vivo
[1] = test system: db/db mice; experiment: Antidiabetic activity in db/db mice (studies I and II): non-fasting serum glucose; details: Compound (Ia) 0.1 mg/kg; for Serum Glucose (mg/dl) Day 0: Day 0 (pretreatment); for Serum Glucose (mg/dl) Day 12: Day 12, non-fasting; for % Change Vs control: serum glucose day 12 vs vehicle control; for % Change Day 12 vs Day 0: serum glucose
Text: The in-vivo efficacy for antidiabetic activity was done for (I) and (II) individually with db/db mice of 13-14 weeks of age.
8. […] 8. The treatment was given oral gavages once daily for 14 days. […]

[2] = test system: db/db mice; experiment: Oral glucose tolerance test in db/db mice (studies I and II); details: Compound (Ia) 0.1 mg/kg; for AUC Glucose: OGTT day 14, fasting, glucose load 2 gm/kg; for % improvement in AUC glucose vs control: OGTT after 14 days of treatment
Text: 8. […] 8. The treatment was given oral gavages once daily for 14 days.
(§1) The OGTT procedure followed is as given below—

[3] = test system: db/db mice; experiment: Oral glucose tolerance test in db/db mice (studies VII and VIII); details: for AUC Glucose: OGTT day 7, fasting, glucose load 2 gm/kg
Text: (§2) In this experiment, 49 db/db mice of 12-16 week were divided into 7 groups and as per their day 0 serum glucose levels. […] Detail treatments and routes of administrations were mentioned in Table no. 27. The treatment was given once daily for 7 days.
(§3) The blood was collected by retro-orbital sinus puncture method under light ether anesthesia on day 0 (pretreatment) and on day 6 (one hour after dose administration) for non-fasting glucose analysis and oral glucose tolerance test (OGTT) was performed on day 7 of the treatment in fasting condition. After blood collection serum was separated and analyzed glucose analysis using Spectra max and commercial diagnostic kits. The OGTT procedure followed is as given below—
Oral Glucose Tolerance Test (OGTT): One day before OGTT all animals were kept on overnight fasting and on the day of OGTT, day 7 of the treatment each animal was dosed with a single dose of vehicle/test compounds administered orally and 60-min post dosing blood was collected (0 min) and glucose load (2 gm/kg/10 ml) administered per orally. Blood was then collected at time points corresponding to 30, 60 and 120 min after glucose load administration. Serum was separated and analyzed for glucose using Spectra max and commercial diagnostic kits.
(§4) The calculation for antidiabetic activity i.e. effect on serum glucose and improvement in glucose Area Under Curve (AUC) was calculated using the excel sheet and Graph Pad Prism software. The day-0 and day-6 glucose values of vehicle control and treatment were considered for calculating the effect on serum glucose. The effect on glucose AUC was calculated using the OGTT glucose levels at different time points and the improvement in glucose AUC were the reduction in glucose AUC after the treatment during OGTT.

[4] = test system: db/db mice; experiment: Oral glucose tolerance test in db/db mice (study IV); details: Compound Ia 0.1 mg/kg, Vildagliptin 1 mg/kg, Metformin 100 mg/kg; for % improvement in AUC glucose vs control: Table 19 and text, OGTT after 14 days of treatment
Text: (§5) 1. […] 17. The treatment was given oral gavages once daily for 14 days.
as §1

[5] = test system: db/db mice; experiment: Antidiabetic activity with Vildagliptin and Metformin in db/db mice (study IV): non-fasting serum glucose; details: Vildagliptin 1 mg/kg
Text: The in-vivo efficacy for antidiabetic activity was done female db/db mice of 10-15 weeks of age.
as §5, §1

[6] = test system: high fat high cholesterol fed Syrian golden hamster; experiment: Lipid lowering effects with Atorvastatin in HF-HC fructose diet Syrian golden hamsters (study V)
Text: The in-vivo efficacy was done in high fat high cholesterol fed Syrian golden hamster. It is an excellent model to investigate hepatic assembly and secretion of lipoprotein since its lipoprotein metabolism closely resembles that of humans as they have cholesteryl ester transfer protein (CETP) as like human. Feeding high fat high cholesterol diet to Syrian golden hamster causes hypercholesterolemia and hypertriglyceridemia which causes an increase in LDL levels and decrease in HDL-C/TC ratio.
In this experiment, 18 Syrian golden hamsters which were kept on high fat-high cholesterol (HF-HC) fructose diet were divided into 3 treatment groups and one group was on normal diet control which was NIN (National Institute of Nutrition, NIN diet) control, the treatment given was as per Table no. 1. […] 20. The treatment was given oral gavages once daily for 13 days.
Calculations of the % change in LDL-C levels, triglyceride and LDL-C/HDL-C ratio (Vs HF-HC fructose diet control) were performed using MS Excel.

[7] = test system: db/db mice; experiment: Antidiabetic activity with Exenatide or Glimepiride in db/db mice (studies VII and VIII): non-fasting serum glucose; details: for Serum Glucose (mg/dl) Day 0: Day 0 (pretreatment), male and female db/db mice; for Serum Glucose (mg/dl) Day 6: Day 6, one hour after dose, non-fasting; for % Change Day 6 vs Day 0: serum glucose
Text: The in-vivo efficacy for antidiabetic activity was done in male and female db/db mice of 12-16 weeks of age. Generally obese and diabetic animals are insulin resistant and have abnormalities in glucose and lipid metabolism. The development of diabetes and beta cell dysfunction in these animal models closely parallels the pathophysiology of the disease condition in humans. […] They progressively develop into insulinopenia with age, a feature commonly observed in last stage of type-2 diabetes, when blood sugar levels are insufficiently controlled. Therefore, this genetic model proves to be suitable for predicting the likely therapeutic benefit of novel euglycemic agents in human type-2 diabetes.
as §2, §3, §4

[8] = Table 9, female db/db mice, Sitagliptin 3 mg/kg p.o. once daily
[9] = Table 9, Sitagliptin 3 mg/kg p.o. once daily
[10] = Table 11, female db/db mice, Metformin 150 mg/kg p.o. once daily
[11] = Table 11, Metformin 150 mg/kg p.o. once daily
[12] = Table 12, Metformin 150 mg/kg p.o.
[13] = HF-HC fructose diet hamsters, 13 days, Compound (Ia) 3 mg/kg, Atorvastatin 0.5 mg/kg
[14] = Table 23, LDL/HDL ratio, Day 13, Compound Ia 3 mg/kg, Atorvastatin 0.5 mg/kg
[15] = Table 28, Compound Ia 0.1 mg/kg p.o., Exenatide 0.1 μg/kg i.p. once daily
[16] = Table 30, Compound Ia 0.1 mg/kg, Glimepiride 2 mg/kg p.o. once daily

CCO[C@@H](Cc1ccc(OCCn2c(C)ccc2-c2ccc(SC)cc2)cc1)C(=O)O [Compound (Ia), Benzenepropanoic acid, α-ethoxy-4-[2-[2-methyl-5-[4-(methylthio)phenyl]-1H -pyrrol-1-yl]ethoxy]-, magnesium salt]
Serum Glucose (mg/dl) Day 0 [1, 8]: 407.8 ± 28.9 mg/dL
Serum Glucose (mg/dl) Day 12 [1, 8]: 276.9 ± 39.4 mg/dL
% Change Vs control [1, 9]: −32.8 ± 6.0%
% Change Day 12 vs Day 0 [1, 9]: −33.0 ± 5.9%
Serum Glucose (mg/dl) Day 0 [1, 10]: 407.8 mg/dL
Serum Glucose (mg/dl) Day 12 [1, 10]: 276.9 mg/dL
% Change Vs control [1, 11]: −32.8%
% Change Day 12 vs Day 0 [1, 11]: −33.0%
reduction in serum glucose ([1]; female db/db mice, Sitagliptin 3 mg/kg, Metformin 150 mg/kg): 32.8%
AUC Glucose ([2]; Table 10, Sitagliptin 3 mg/kg p.o.): 51757.3 ± 3366.3 mg·min/dL
% improvement in AUC glucose vs control ([2]; Table 10 and text, Sitagliptin 3 mg/kg p.o.): 9% and 9.0 ± 5.9%
% improvement in AUC glucose vs control [2, 12]: 9%
AUC Glucose [2, 12]: 51757.3 mg·min/dL
AUC Glucose ([3]; Table 29, Compound Ia 0.1 mg/kg p.o., Exenatide 0.1 μg/kg i.p.): 46452.6 mg·min/dL
% improvement in AUC glucose vs control ([3]; Table 29 and text, OGTT day 7, Compound Ia 0.1 mg/kg p.o., Exenatide 0.1 μg/kg i.p.): 23.7%
AUC Glucose ([3]; Table 31, Compound Ia 0.1 mg/kg, Glimepiride 2 mg/kg p.o.): 46452.6 mg·min/dL
% improvement in AUC glucose vs control ([3]; Table 31 and text, OGTT after 7 days of treatment, Compound Ia 0.1 mg/kg, Glimepiride 2 mg/kg p.o.): 23.7%
AUC Glucose ([4]; Table 19, OGTT day 14, fasting, glucose load 2 gm/kg): 69613.3 mg·min/dL
% improvement in AUC glucose vs control [4]: does no show any improvement
% improvement in AUC glucose vs control ([4]; listed as Compound Ia): −12.0%
Serum Glucose (mg/dl) Day 0 ([5]; Table 18, Day 0 (pretreatment), female db/db mice, Compound Ia 0.1 mg/kg, Metformin 100 mg/kg p.o. once daily): 375.4 mg/dL
Serum Glucose (mg/dl) Day 12 ([5]; Table 18, Day 12, one hour after dose, non-fasting, Compound Ia 0.1 mg/kg, Metformin 100 mg/kg p.o. once daily): 209.0 mg/dL
% Change Vs control ([5]; Table 18, serum glucose day 12 vs vehicle control, Compound Ia 0.1 mg/kg, Metformin 100 mg/kg): −34.3%
% Change Day 12 vs Day 0 ([5]; Table 18, serum glucose, Compound Ia 0.1 mg/kg, Metformin 100 mg/kg): −43.8%
reduction in serum glucose ([5]; female db/db mice, Compound (Ia) 0.1 mg/kg, Metformin 100 mg/kg): 34.3%
reduction in LDL-C [6, 13]: 14.8%
reduction in LDL-C/HDL-C ratio, atherogenic index [6, 13]: does not showed any reduction
reduction in triglyceride [6, 13]: 65.2%
Serum LDL-C (mg/dl) Day 0 ([6]; Table 21, Day 0 (pretreatment), HF-HC fructose diet hamsters, Compound Ia 3 mg/kg, Atorvastatin 0.5 mg/kg oral once daily 13 days): 75.1 mg/dL
LDL-C % Change vs Day 0 ([6]; Table 21, Day 13, Compound Ia 3 mg/kg, Atorvastatin 0.5 mg/kg): 0.1%
Serum LDL-C (mg/dl) Day 13 ([6]; Table 21, Day 13, HF-HC fructose diet hamsters, Compound Ia 3 mg/kg, Atorvastatin 0.5 mg/kg oral once daily 13 days): 73.1 mg/dL
% Change vs HF-HC Fructose Control ([6]; Table 21, LDL-C, Day 13, Compound Ia 3 mg/kg, Atorvastatin 0.5 mg/kg): −14.8%
Serum triglyceride (mg/dl) Day 0 ([6]; Table 22, Day 0 (pretreatment), HF-HC fructose diet hamsters, Compound Ia 3 mg/kg, Atorvastatin 0.5 mg/kg oral once daily 13 days): 418.4 mg/dL
TG % Change vs Day 0 ([6]; Table 22, Day 13, Compound Ia 3 mg/kg, Atorvastatin 0.5 mg/kg): −64.0%
Serum triglyceride (mg/dl) Day 13 ([6]; Table 22, Day 13, HF-HC fructose diet hamsters, Compound Ia 3 mg/kg, Atorvastatin 0.5 mg/kg oral once daily 13 days): 149.5 mg/dL
% Change vs HF-HC Fructose Control ([6]; Table 22, triglyceride, Day 13, Compound Ia 3 mg/kg, Atorvastatin 0.5 mg/kg): −65.2%
LDL/HDL RATIO Day 0 ([6]; Table 23, Day 0 (pretreatment), HF-HC fructose diet hamsters, Compound Ia 3 mg/kg, Atorvastatin 0.5 mg/kg): 0.79
LDL/HDL RATIO Day 13 ([6]; Table 23, Day 13, HF-HC fructose diet hamsters, Compound Ia 3 mg/kg, Atorvastatin 0.5 mg/kg): 0.82
% Change vs HF-HC Fructose Control [6, 14]: 8.5%
Change vs Day 0 [6, 14]: 6.4
Serum Glucose (mg/dl) Day 0 [7, 15]: 420.6 mg/dL
Serum Glucose (mg/dl) Day 6 [7, 15]: 363.4 mg/dL
% Change Vs control ([7]; Table 28, serum glucose day 6 vs vehicle control (i.p. PBS or per oral vehicle), Compound Ia 0.1 mg/kg p.o., Exenatide 0.1 μg/kg i.p.): −24.8%
% Change Day 6 vs Day 0 ([7]; Table 28, Compound Ia 0.1 mg/kg p.o., Exenatide 0.1 μg/kg i.p.): −13.4%
Serum Glucose (mg/dl) Day 0 [7, 16]: 420.6 mg/dL
Serum Glucose (mg/dl) Day 6 [7, 16]: 363.4 mg/dL
% Change Day 6 vs Day 0 ([7]; Table 30, Compound Ia 0.1 mg/kg, Glimepiride 2 mg/kg p.o.): −13.4%
% Change Vs control ([7]; Table 30 and text, serum glucose day 6 vs vehicle control, Compound Ia 0.1 mg/kg, Glimepiride 2 mg/kg p.o.): −24.8%
reduction in serum glucose ([7]; db/db mice, day 6, Compound Ia 0.1 mg/kg p.o., Exenatide 0.1 μg/kg i.p.): 24.8%
